From US4288609A, “Quaternary ammonium derivatives of adamantane with antimicrobic activity” (priority 1976, dated 1981)
Like-named read-outs stand apart in the source and are kept apart here.

What was measured:
Staph.Aureus Tour = experiment: M.I.C. in vitro, gram+ Staph. Aureus (Table 1); type: cell-based, Staphylococcus Aureus; settings: Staphylococcus aureus, read-out: M.I.C.
Description: (§1) The method for evaluating the activity in vitro against bacteria, fungi and protozoa consists in introducing calculated quantities of the substance, the activity of which it is desired to test, into culture media already inoculated with a predetermined number of test germs.
(§2) After 24 or 48 hours of incubation at 30° or 37° C., according to the micro-organism being tested, it is possible to evaluate the growth of the same in the culture broth; in this manner the minimum concentration (M.I.C.) which inhibits the growth of the micro-organisms in vitro is determined.
(§3) In table 1 there are recorded the M.I.C. values in γ/ml of the products subject of the present invention, against certain gram+ and gram- bacterial strains, some of which are pathogenic towards human beings.

Diplococcus Pneum. ISM = experiment: M.I.C. in vitro, gram+ Diplococcus Pneum. (Table 1); type: cell-based; settings: read-out: M.I.C.
Description: as §1, §2, §3

[1] = test system: Streptococ. Henclyt. 0203; experiment: M.I.C. in vitro, gram+ Streptococ. Henclyt. (Table 1); type: cell-based; settings: for MIC: read-out: M.I.C.
Description: as §1, §2, §3

Esch. Coli. SKF 12140 = experiment: M.I.C. in vitro, gram- Esch. Coli (Table 1); type: cell-based, Escherichia Coli; settings: Escherichia coli, read-out: M.I.C.
Description: as §1, §2, §3

Klens. Pneum. ISM = experiment: M.I.C. in vitro, gram- Klens. Pneum. (Table 1); type: cell-based; settings: read-out: M.I.C.
Description: as §1, §2, §3

Proteus Vulc. ATCC 881 = experiment: M.I.C. in vitro, gram- Proteus Vulc. (Table 1); type: cell-based; settings: read-out: M.I.C.
Description: as §1, §2, §3

Pseudom.Aer. ATCC 1014 = experiment: M.I.C. in vitro, gram- Pseudom. Aer. (Table 1); type: cell-based, Pseudomonas Aeruginosa; settings: for MIC: Pseudomonas aeruginosa, read-out: M.I.C.
Description: as §1, §2, §3

[2] = test system: Trych. Mentagr. 1st.Pastuer; experiment: MIC mildews, Trichophyton mentagrophytes (Table 2); type: cell-based; settings: Sabourand broth
Description: as §1, §2
(§4) Inoculation with Trichophyton mentagrophytes and Microsporum canis was effected in a ratio of 1% of the volume of medium used.
(§5) For the fungi Sabourand broth was used as a culture medium, whilst for the protozoa Kupferberg Trichomonas broth with 5% of horse serum was used.

[3] = test system: Nicrosporum Canis ATCC 11621; experiment: MIC mildews, Microsporum canis (Table 2); type: cell-based; settings: Sabourand broth
Description: as §1, §2, §4, §5

Candida Albic. SKF 2270 = experiment: MIC yeasts, Candida albicans (Table 2); type: cell-based; settings: Sabourand broth
Description: as §1, §2
(§6) Inoculation with Candida albicans or Candida pseudotropicalis was made by diluting cultures grown for 24 h at 30° C. (cellular density inoculated 10^3 /ml).
as §5

[4] = test system: Candida Pseudotrop. ATCC 2512; experiment: MIC yeasts, Candida pseudotropicalis (Table 2); type: cell-based; settings: Sabourand broth
Description: as §1, §2, §6, §5

[5] = test system: Trich. Vaginalis ISM 66/22; experiment: MIC protozoa, Trichomonas vaginalis (Table 2); type: cell-based; settings: Trichomonas vaginalis, +10% serum (head); Kupferberg Trichomonas broth with 5% of horse serum; read-out: MIC
Description: as §1, §2
(§7) Inoculation with Trichomonas vaginalis and Trichomonas foetus, obtained from cultures transplanted every other day to make them lively, was effected in a ratio of 3.5% of the volume of medium used.
as §5

Trich. Foetus ISM 66/23 = experiment: MIC protozoa, Trichomonas foetus (Table 2); type: cell-based; settings: +10% serum (head), Kupferberg Trichomonas broth with 5% of horse serum
Description: as §1, §2, §7, §5

[6] = Acute oral toxicity in mice (Table 4); settings: mouse, in vivo, po, LD50, oral, mice, 14 days
Description: The substances were administered orally to groups of 10 female mice CF1 of average weight of about 20 grams, in aqueous solution and in such way that the total volume administered would be in each case 1 ml/100 g of weight.

[7] = Candida, without serum, read-out: MIC
[8] = Candida, ATCC2512, +10% serum, read-out: MIC
[9] = Trichophyton mentagrophytes, +10% serum, read-out: MIC
[10] = Trichophyton mentagrophytes, without serum, read-out: MIC
[11] = Microsporum canis, ATCC11621, +10% serum, read-out: MIC
[12] = Microsporum canis, ATCC11621, without serum, read-out: MIC
[13] = Candida, +10% serum, read-out: MIC
[14] = Candida, ATCC2512, without serum, read-out: MIC
[15] = Tritrichomonas foetus, read-out: MIC

## CCCCCCCCCC[N+](CC)(CC)CCNC(=O)C12CC3CC(CC(C3)C1)C2 [Example 9, n-Decyl-diethyl-(1-adamantane-carbonylamido)-ethylammonium bromide]
Staph.Aureus Tour; +10% serum
  MIC: 5 µg/mL
Staph.Aureus Tour; without serum
  MIC: 0.1 µg/mL
Diplococcus Pneum. ISM; +10% serum
  MIC: 5 µg/mL
Diplococcus Pneum. ISM; without serum
  MIC: 1 µg/mL
[1]; +10% serum
  M.I.C.: 0.5 µg/mL
[1]; without serum
  M.I.C.: 0.1 µg/mL
Esch. Coli. SKF 12140; +10% serum
  MIC: 50 µg/mL
Esch. Coli. SKF 12140; without serum
  MIC: 5 µg/mL
Klens. Pneum. ISM; +10% serum
  MIC: 50 µg/mL
Klens. Pneum. ISM; without serum
  MIC: 10 µg/mL
Proteus Vulc. ATCC 881; +10% serum
  MIC: 100 µg/mL
Proteus Vulc. ATCC 881; without serum
  MIC: 5 µg/mL
Pseudom.Aer. ATCC 1014; ATCC1014, +10% serum
  MIC: 50 µg/mL
Pseudom.Aer. ATCC 1014; without serum
  M.I.C.: 10 µg/mL
[2]; +10% serum
  MIC: 10 µg/mL
[2]; without serum
  MIC: 0.2 µg/mL
[3]; +10% serum
  MIC: 20 µg/mL
[3]; without serum
  MIC: 0.2 µg/mL
Candida Albic. SKF 2270; +10% serum
  MIC: 20 µg/mL
Candida Albic. SKF 2270; [7]
  MIC: 1 µg/mL
[4]; [8]
  MIC: 50 µg/mL
[4]; without serum
  MIC: 0.2 µg/mL
[5]
  MIC: 5 µg/mL
Trich. Foetus ISM 66/23
  MIC: 2 µg/mL
[6]
  LD50 at 336 h: 980 mg/kg

## CCCCCCCCCCC[N+](C)(C)CCOC(=O)C12CC3CC(CC(C3)C1)C2 [Example 3]
Staph.Aureus Tour; +10% serum
  MIC: 5 µg/mL
Staph.Aureus Tour; without serum
  MIC: < 0.1 µg/mL
Diplococcus Pneum. ISM; +10% serum
  MIC: 5 µg/mL
Diplococcus Pneum. ISM; without serum
  MIC: 0.5 µg/mL
[1]; +10% serum
  MIC: 9.2 µg/mL
[1]; without serum
  MIC: < 0.1 µg/mL
Esch. Coli. SKF 12140; +10% serum
  MIC: 100 µg/mL
Esch. Coli. SKF 12140; without serum
  MIC: 2 µg/mL
Klens. Pneum. ISM; +10% serum
  MIC: 100 µg/mL
Klens. Pneum. ISM; without serum
  MIC: 5 µg/mL
Proteus Vulc. ATCC 881; +10% serum
  MIC: 100 µg/mL
Proteus Vulc. ATCC 881; without serum
  MIC: 5 µg/mL
Pseudom.Aer. ATCC 1014; ATCC1014, +10% serum
  MIC: 100 µg/mL
Pseudom.Aer. ATCC 1014; ATCC1014, without serum
  MIC: 20 µg/mL
[2]; [9]
  MIC: 10 µg/mL
[2]; [10]
  MIC: 0.1 µg/mL
[3]; [11]
  MIC: 10 µg/mL
[3]; [12]
  MIC: < 0.1 µg/mL
Candida Albic. SKF 2270; [13]
  MIC: 20 µg/mL
Candida Albic. SKF 2270; [7]
  MIC: 0.5 µg/mL
[4]; [8]
  MIC: 50 µg/mL
[4]; [14]
  MIC: < 0.1 µg/mL
[5]
  MIC: 5 µg/mL
Trich. Foetus ISM 66/23; [15]
  MIC: 5 µg/mL
[6]
  LD50 at 336 h: 745 mg/kg

## CCCCCCCCCCCC[N+](CC)(CC)CCOC(=O)C12CC3CC(CC(C3)C1)C2 [Example 6, n-Dodecyl-diethyl-(1-adamantane-carboxy)-ethyl-ammonium bromide]
Staph.Aureus Tour; +10% serum
  MIC: 10 µg/mL
Staph.Aureus Tour; without serum
  MIC: 0.1 µg/mL
Diplococcus Pneum. ISM; +10% serum
  MIC: 5 µg/mL
Diplococcus Pneum. ISM; without serum
  MIC: 2 µg/mL
[1]; +10% serum
  MIC: 2 µg/mL
[1]; without serum
  MIC: 0.5 µg/mL
Esch. Coli. SKF 12140; +10% serum
  MIC: 100 µg/mL
Esch. Coli. SKF 12140; without serum
  MIC: 10 µg/mL
Klens. Pneum. ISM; +10% serum
  MIC: 100 µg/mL
Klens. Pneum. ISM; without serum
  MIC: 10 µg/mL
Proteus Vulc. ATCC 881; +10% serum
  MIC: 100 µg/mL
Proteus Vulc. ATCC 881; without serum
  MIC: 20 µg/mL
Pseudom.Aer. ATCC 1014; ATCC1014, +10% serum
  MIC: 100 µg/mL
Pseudom.Aer. ATCC 1014; ATCC1014, without serum
  MIC: 50 µg/mL
[2]; [9]
  MIC: 20 µg/mL
[2]; [10]
  MIC: 0.5 µg/mL
[3]; [11]
  MIC: 50 µg/mL
[3]; [12]
  MIC: 0.5 µg/mL
Candida Albic. SKF 2270; [13]
  MIC: 50 µg/mL
Candida Albic. SKF 2270; [7]
  MIC: 2 µg/mL
[4]; [8]
  MIC: 50 µg/mL
[4]; [14]
  MIC: 0.5 µg/mL
[5]
  MIC: 10 µg/mL
Trich. Foetus ISM 66/23; [15]
  MIC: 5 µg/mL
[6]
  LD50 at 336 h: 935 mg/kg
